Laboratory results as given in ChEMBL document CHEMBL1909046, “DrugMatrix in vitro pharmacology data”.
pIC50, pKi: −log10 of the molar value. *1 amine or outer side, *2 acyl side, *3 side chain or, on linkers, in order; H or OH if unused. Where a SMILES comes first, the peptide text is derived from it. Bridges are numbered along the chain shown (N, C = ends). Roman numbers before positions name the chains, in order. [ ]: non-standard residue; d: D form. Actinocin(1to9) = Cc1c2oc3c(C)ccc(C(=O)[*:2])c3nc-2c(C(=O)[*:1])c(N)c1=O; NMeV = CN[C@H](C(=O)O)C(C)C; Sar = CNCC(=O)O

What was measured:
[1] = DRUGMATRIX: GABAA, Chloride Channel, TBOB radioligand binding (ligand: [3H] TBOB); format: cell membranes, Rattus norvegicus, Wistar, Cerebral cortex, Membrane; conditions: Not Active = under 50% inhibition at 10 µM
Cannabinoid receptor 1 = Cannabinoid receptor 1 (Homo sapiens, UniProt P21554); format: cell membranes, Membrane; conditions: chem-1; note: in other assays of this panel Not Active means under 50% inhibition at 10 µM
Sequence of Cannabinoid receptor 1 (P21554 whole entry): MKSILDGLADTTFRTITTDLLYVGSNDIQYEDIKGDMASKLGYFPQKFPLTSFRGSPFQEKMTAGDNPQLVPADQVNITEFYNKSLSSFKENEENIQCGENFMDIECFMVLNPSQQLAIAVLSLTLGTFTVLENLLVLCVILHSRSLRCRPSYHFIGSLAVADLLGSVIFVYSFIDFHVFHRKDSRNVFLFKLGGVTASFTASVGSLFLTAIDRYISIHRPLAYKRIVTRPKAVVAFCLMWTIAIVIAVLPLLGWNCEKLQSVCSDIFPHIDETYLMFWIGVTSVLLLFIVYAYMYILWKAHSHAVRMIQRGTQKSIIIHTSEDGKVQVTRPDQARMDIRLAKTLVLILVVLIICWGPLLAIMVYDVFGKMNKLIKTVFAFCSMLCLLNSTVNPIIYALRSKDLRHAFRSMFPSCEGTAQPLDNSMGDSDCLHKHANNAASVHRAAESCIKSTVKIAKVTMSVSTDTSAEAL

Glycine receptor = Glycine receptor (Rattus norvegicus, UniProt P22771+P24524+P07727+P20781); format: cell membranes, Wistar, Spinal cord, Membrane; note: in other assays of this panel Not Active means under 50% inhibition at 10 µM
[2] = DRUGMATRIX: Atrial Natriuretic Factor (ANF) radioligand binding (ligand: [125I] ANF (rat)); format: cell membranes, Cavia porcellus, Dunkin-Hartley, Adrenal gland, Membrane; conditions: Not Active = under 50% inhibition at 10 µM
[3] = DRUGMATRIX: Nicotinic Acetylcholine radioligand binding (ligand: [125I] Epibatidine); format: cell membranes, Membrane; conditions: imr-32; Not Active = under 50% inhibition at 10 µM
[4] = DRUGMATRIX: Calcium Channel Type L, Dihydropyridine radioligand binding (ligand: [3H] Nitrendipine); format: cell membranes, Rattus norvegicus, Wistar, Cerebral cortex, Membrane; conditions: Not Active = under 50% inhibition at 10 µM
Glucocorticoid receptor = target: T1, Glucocorticoid receptor (Homo sapiens, UniProt P04150); conditions: hela s3; note: in other assays of this panel Not Active means under 50% inhibition at 10 µM
T1 sequence (P04150 whole entry): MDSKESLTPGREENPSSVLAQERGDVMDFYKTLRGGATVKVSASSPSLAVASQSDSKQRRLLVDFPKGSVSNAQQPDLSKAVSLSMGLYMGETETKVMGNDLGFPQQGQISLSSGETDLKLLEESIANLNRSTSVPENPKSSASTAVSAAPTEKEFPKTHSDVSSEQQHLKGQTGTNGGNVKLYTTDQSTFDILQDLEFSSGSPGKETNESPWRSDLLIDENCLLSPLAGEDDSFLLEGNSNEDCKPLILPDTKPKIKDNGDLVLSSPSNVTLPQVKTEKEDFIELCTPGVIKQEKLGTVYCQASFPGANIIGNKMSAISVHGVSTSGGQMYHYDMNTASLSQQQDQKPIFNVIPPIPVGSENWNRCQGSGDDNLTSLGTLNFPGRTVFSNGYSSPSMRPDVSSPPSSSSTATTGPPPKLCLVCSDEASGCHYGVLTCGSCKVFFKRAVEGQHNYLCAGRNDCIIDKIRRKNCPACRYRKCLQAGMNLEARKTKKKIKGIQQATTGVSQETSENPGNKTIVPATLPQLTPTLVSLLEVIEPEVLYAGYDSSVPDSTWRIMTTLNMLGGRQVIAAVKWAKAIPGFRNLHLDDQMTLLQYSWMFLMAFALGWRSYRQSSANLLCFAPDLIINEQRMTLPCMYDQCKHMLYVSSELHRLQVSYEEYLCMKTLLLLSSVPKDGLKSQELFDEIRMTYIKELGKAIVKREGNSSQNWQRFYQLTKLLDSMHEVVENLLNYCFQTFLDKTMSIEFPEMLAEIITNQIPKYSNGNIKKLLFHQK

Calcitonin receptor = target: T2, Calcitonin receptor (Homo sapiens, UniProt P30988); format: cell membranes, Membrane; conditions: t47d; note: in other assays of this panel Not Active means under 50% inhibition at 10 µM
T2 sequence (P30988 whole entry): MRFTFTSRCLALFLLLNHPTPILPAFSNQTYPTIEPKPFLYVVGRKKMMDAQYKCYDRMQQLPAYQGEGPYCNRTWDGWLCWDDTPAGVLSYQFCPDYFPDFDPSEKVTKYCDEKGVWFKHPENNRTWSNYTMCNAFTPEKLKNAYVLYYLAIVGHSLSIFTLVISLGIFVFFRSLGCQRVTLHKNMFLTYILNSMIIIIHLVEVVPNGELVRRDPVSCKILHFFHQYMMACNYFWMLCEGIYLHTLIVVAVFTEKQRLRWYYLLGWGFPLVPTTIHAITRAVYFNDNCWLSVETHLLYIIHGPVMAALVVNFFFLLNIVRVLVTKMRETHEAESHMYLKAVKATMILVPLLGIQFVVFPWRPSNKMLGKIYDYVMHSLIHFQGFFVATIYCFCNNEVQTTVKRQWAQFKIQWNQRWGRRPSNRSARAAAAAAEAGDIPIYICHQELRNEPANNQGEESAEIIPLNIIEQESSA

SMILES	IC50 [1]	Ki [1]	IC50 (Cannabinoid receptor 1)	IC50 (Glycine receptor)	IC50 [2]	Ki [2]	IC50 [3]	Ki [3]	IC50 [4]	Ki [4]	IC50 (Glucocorticoid receptor)	IC50 (Calcitonin receptor)	pIC50 ([4]; read-out: IC50)	pKi ([4]; read-out: Ki)
c1ccc2c(c1)c1cccc3ccc4cccc2c4c31 [BENZO[E]PYRENE]	Not Active	Not Active	Not Active	Not Active	Not Active	Not Active	Not Active	Not Active	Not Active	Not Active	Not Active	Not Active		
CNCCc1ccccn1 [BETAHISTINE]	Not Active	Not Active	Not Active	Not Active	Not Active	Not Active	Not Active	Not Active	Not Active	Not Active	Not Active	Not Active		
CC(NC(C)(C)C)C(=O)c1cccc(Cl)c1 (stereo unspecified) [BUPROPION]	Not Active	Not Active	Not Active	Not Active	Not Active	Not Active	Not Active	Not Active	Not Active	Not Active	Not Active	Not Active		
CN(Cc1ccc(C(C)(C)C)cc1)Cc1cccc2ccccc12 [BUTENAFINE]	Not Active	Not Active	Not Active	Not Active	Not Active	Not Active	Not Active	Not Active	Not Active	Not Active	Not Active	Not Active		
C[C@H](CS)C(=O)N1CCC[C@H]1C(=O)O [CAPTOPRIL]	Not Active	Not Active	Not Active	Not Active	Not Active	Not Active	Not Active	Not Active	Not Active	Not Active	Not Active	Not Active		
Cc1ccc(-c2cc(C(F)(F)F)nn2-c2ccc(S(N)(=O)=O)cc2)cc1 [CELECOXIB]	Not Active	Not Active	Not Active	Not Active	Not Active	Not Active	Not Active	Not Active			Not Active	Not Active	4.61	4.80
CN(C)CCCN1c2ccccc2Sc2ccc(Cl)cc21 [CHLORPROMAZINE]	Not Active	Not Active	Not Active	Not Active	Not Active	Not Active	Not Active	Not Active	Not Active	Not Active	Not Active	Not Active		
C[C@H](CCC(=O)O)[C@H]1CC[C@H]2[C@@H]3[C@H](O)C[C@@H]4C[C@H](O)CC[C@]4(C)[C@H]3C[C@H](O)[C@]12C [CHOLIC ACID]	Not Active	Not Active	Not Active	Not Active	Not Active	Not Active	Not Active	Not Active	Not Active	Not Active	Not Active	Not Active		
Cc1cc(C2CCCCC2)n(O)c(=O)c1 [CICLOPIROX]	Not Active	Not Active	Not Active	Not Active	Not Active	Not Active	Not Active	Not Active	Not Active	Not Active	Not Active	Not Active		
CC1=C2C(=CO[C@H](C)[C@H]2C)C(O)=C(C(=O)O)C1=O [CITRININ]	Not Active	Not Active	Not Active	Not Active	Not Active	Not Active	Not Active	Not Active	Not Active	Not Active	Not Active	Not Active		
CC(C)(Oc1ccc(Cl)cc1)C(=O)O [CLOFIBRIC ACID]	Not Active	Not Active	Not Active	Not Active	Not Active	Not Active	Not Active	Not Active	Not Active	Not Active	Not Active	Not Active		
Clc1cccc(Cl)c1NC1=NCCN1 [CLONIDINE]	Not Active	Not Active	Not Active	Not Active	Not Active	Not Active	Not Active	Not Active	Not Active	Not Active	Not Active	Not Active		
Cc1cc(C(C#N)c2ccc(Cl)cc2)c(Cl)cc1NC(=O)c1cc(I)cc(I)c1O (stereo unspecified) [CLOSANTEL]	Not Active	Not Active	Not Active	Not Active	Not Active	Not Active	Not Active	Not Active	Not Active	Not Active	Not Active	Not Active		
Cc1onc(-c2ccccc2Cl)c1C(=O)N[C@@H]1C(=O)N2[C@@H]1SC(C)(C)[C@@H]2C(=O)O [CLOXACILLIN]	Not Active	Not Active	Not Active	Not Active	Not Active	Not Active	Not Active	Not Active	Not Active	Not Active	Not Active	Not Active		
Cc1c2oc3c(C)ccc(C(=O)N[C@@H]4C(=O)N[C@H](C(C)C)C(=O)N5CCC[C@H]5C(=O)N(C)CC(=O)N(C)[C@@H](C(C)C)C(=O)O[C@@H]4C)c3nc-2c(C(=O)N[C@@H]2C(=O)N[C@H](C(C)C)C(=O)N3CCC[C@H]3C(=O)N(C)CC(=O)N(C)[C@@H](C(C)C)C(=O)O[C@@H]2C)c(N)c1=O [DACTINOMYCIN] (I: T[dV]P[Sar][NMeV] / II: T[dV]P[Sar][NMeV]; ester I:1-I:C, II:1-II:C; linker I:N-II:N via Actinocin(1to9))	Not Active	Not Active	Not Active	Not Active	Not Active	Not Active	Not Active	Not Active	Not Active	Not Active	Not Active	Not Active		
Cc1c(O)c(=O)ccn1C [DEFERIPRONE]	Not Active	Not Active	Not Active	Not Active	Not Active	Not Active	Not Active	Not Active	Not Active	Not Active	Not Active	Not Active		
C[C@H]1O[C@@H](O[C@H]2[C@@H](O)C[C@H](O[C@H]3[C@@H](O)C[C@H](O[C@H]4CC[C@@]5(C)[C@H](CC[C@@H]6[C@@H]5C[C@@H](O)[C@]5(C)[C@@H](C7=CC(=O)OC7)CC[C@]65O)C4)O[C@@H]3C)O[C@@H]2C)C[C@H](O)[C@@H]1O [DIGOXIN]	Not Active	Not Active	Not Active	Not Active	Not Active	Not Active	Not Active	Not Active	Not Active	Not Active	Not Active	Not Active		
CC(C)[C@@]1(NC(=O)[C@@H]2C[C@@H]3c4cccc5[nH]cc(c45)C[C@H]3N(C)C2)O[C@@]2(O)[C@@H]3CCCN3C(=O)[C@H](Cc3ccccc3)N2C1=O.CS(=O)(=O)O [DIHYDROERGOCRISTINE MESYLATE]	Not Active	Not Active	Not Active	Not Active	Not Active	Not Active	Not Active	Not Active	Not Active	Not Active	Not Active	Not Active		
